{"source": "patent US8962655B2", "about": "“Composition for treatment of undifferentiated gastric cancer” (Eisai R&D Management Co., Ltd., priority 2007, dated 2015)", "format_in_all_cases": "in vivo", "key": {"[1]": {"system": "human scirrhous gastric cancer cell line (HSC-39)", "assay": "Combination use with 5-fluorouracil in subcutaneous transplanted (xenograft) models of HSC-39", "details": "HSC-39 xenograft, nude mice", "description": "(§1) Human scirrhous gastric cancer cell line HSC-39 (purchased from Immuno-Biological Laboratories Co., Ltd.) was cultured in RPMI1640 (containing 10% FBS) in a 5% carbon dioxide gas incubator at 37° C. to about 80% confluence, and then the cells were collected with trypsin-EDTA. A 5×10^7 cells/mL suspension was prepared with a phosphate buffer, and each 0.1 mL of the resulting cell suspension was subcutaneously transplanted to nude mice at the side of their bodies. Thirteen days after the transplantation, 4-(3-chloro-4-(cyclopropylaminocarbonyl)aminophenoxy)-7-methoxy-6-quinolinecarboxamide (3, 10 or 30 mg/kg, once a day for four weeks, oral) and 5-fluorouracil (Kyowa Hakko) (50 mg/kg, every four days for three times, intravenous) were administered alone or in combination. The major and minor axes of tumors were measured with Digimatic caliper (Mitsutoyo Corporation), and tumor volumes and relative tumor volumes were calculated according to the following formulae: […]"}, "[2]": {"system": "human scirrhous gastric cancer cell line (HSC-39)", "assay": "Combination use with paclitaxel in subcutaneous transplanted (xenograft) models of HSC-39", "details": "HSC-39 xenograft, nude mice", "description": "as §1, with “Eleven” for “Thirteen”, “paclitaxel (Calbiochem) (14” for “5-fluorouracil (Kyowa Hakko) (50”, “once a day” for “every four days”, “five days,” for “three times,”"}, "[3]": {"system": "human scirrhous gastric cancer cell line (HSC-39)", "assay": "Combination use with irinotecan hydrochloride in subcutaneous transplanted (xenograft) models of HSC-39", "details": "once a day for four weeks, oral, HSC-39 xenograft, nude mice", "description": "Human scirrhous gastric cancer cell line HSC-39 (purchased from Immuno-Biological Laboratories Co,. Ltd.) was cultured in RPMI1640 (containing 10% FBS) in a 5% carbon dioxide gas incubator at 37° C. to about 80% confluence, and then the cells were collected with trypsin-EDTA. A 5×10^7 cells/mL suspension was prepared with a phosphate buffer, and each 0.1 mL of the resulting cell suspension was subcutaneously transplanted to nude mice at the side of their bodies.\nTwelve days after the transplantation, 4-(3-chloro-4-(cyclopropylaminocarbonyl)aminophenoxy)-7-methoxy-6-quinolinecarboxamide (3, 10 or 30 mg/kg, once a day for four weeks, oral) and irinotecan hydrochloride (Daiichi Seiyaku) (100 mg/kg, every four days for three times, intravenous) were administered alone or in combination. The major and minor axes of tumors were measured with Digimatic caliper (Mitsutoyo Corporation), and tumor volumes and relative tumor volumes were calculated according to the following formulae: Tumor Volume (TV)=Major axis of tumor (mm)×(Minor axis of tumor)^2 (mm^2)/2 Relative Tumor Volume (RTV)=Tumor volume on measurement day/Tumor volume on the first administration day."}, "[4]": {"details": "Compound A 3 mg/kg alone, once a day for four weeks, oral"}, "[5]": {"details": "Compound A 10 mg/kg alone, once a day for four weeks, oral"}, "[6]": {"details": "Compound A 30 mg/kg alone, once a day for four weeks, oral"}}, "data": [{"smiles": "O=c1[nH]cc(F)c(=O)[nH]1", "note": "[5-Fluorouracil, 5-fluorouracil, reference compound]", "values": [{"measurement": "Relative tumor volume on Day 29 Average ± standard deviation", "setting": "[1]; 5-fluorouracil 50 mg/kg alone, every four days for three times, intravenous", "result": "5.16 ± 1.37"}]}, {"smiles": "COc1cc2nccc(Oc3ccc(NC(=O)NC4CC4)c(Cl)c3)c2cc1C(N)=O", "note": "[Compound A, 4-(3-chloro-4-(cyclopropylaminocarbonyl)aminophenoxy)-7-methoxy-6-quinolinecarboxamide]", "values": [{"measurement": "Relative tumor volume on Day 29 Average ± standard deviation", "setting": "[2]; [4]", "result": "3.79 ± 1.43"}, {"measurement": "Relative tumor volume on Day 29 Average ± standard deviation", "setting": "[2]; [5]", "result": "3.27 ± 1.26"}, {"measurement": "Relative tumor volume on Day 29 Average ± standard deviation", "setting": "[2]; [6]", "result": "1.69 ± 0.72"}, {"measurement": "Relative tumor volume on Day 29 Average ± standard deviation", "setting": "[1]; [4]", "result": "4.16 ± 1.28"}, {"measurement": "Relative tumor volume on Day 29 Average ± standard deviation", "setting": "[1]; [5]", "result": "3.73 ± 1.21"}, {"measurement": "Relative tumor volume on Day 29 Average ± standard deviation", "setting": "[1]; [6]", "result": "2.72 ± 1.33"}, {"measurement": "Relative tumor volume on Day 29 Average ± standard deviation", "setting": "[3]; Compound A 3 mg/kg alone", "result": "4.29 ± 1.51"}, {"measurement": "Relative tumor volume on Day 29 Average ± standard deviation", "setting": "[3]; Compound A 10 mg/kg alone", "result": "2.93 ± 1.55"}, {"measurement": "Relative tumor volume on Day 29 Average ± standard deviation", "setting": "[3]; Compound A 30 mg/kg alone", "result": "1.76 ± 0.92"}]}, {"smiles": "CC(=O)O[C@H]1C(=O)[C@@]2(C)[C@H]([C@H](OC(=O)c3ccccc3)[C@]3(O)C[C@H](OC(=O)[C@H](O)[C@@H](NC(=O)c4ccccc4)c4ccccc4)C(C)=C1C3(C)C)[C@]1(OC(C)=O)CO[C@@H]1C[C@@H]2O", "note": "[Paclitaxel, paclitaxel, reference compound]", "values": [{"measurement": "Relative tumor volume on Day 29 Average ± standard deviation", "setting": "[2]; paclitaxel 14 mg/kg alone, once a day for five days, intravenous", "result": "4.26 ± 2.06"}]}]}
